Measurements: patent US20080064723A1, “Anti-Hair Graying Agent” (SHISEIDO COMPANY, LTD., priority 2004, published 2008)

What follows are compounds tested on humans (assay: Human anti-hair graying effect test). Settings: 0.25% sample applied on scalps of 10 male subjects, two times per day, 2 ml per time, six months; after use vs before use.
Format: in vivo
Method: As the test substances, compounds 1, 2 and 3 were used. Each test substance was dissolved in a mixed solution of an aqueous 70% ethanol solution plus 1% 1,3-butylene glycol and the resultant mixture used as the sample (test substance concentration: 0.25%).
The number of gray hairs among approximately 1000 hairs was counted before and after use of each sample. The changes of the ratios were used to compare the anti-hair graying actions. Specifically, each sample was applied on the scalps of 10 male subjects two times per day, 2 ml per time, continuously for six months. One thousand hairs of each of the subjects were counted divided into black hairs and gray hairs before the application and right after the end of six months after termination of the application to investigate the hair graying rate. The ratios (%) of the subjects where the hair graying rates after use declined 20% or more compared with before use, changed within ±20% or increased by 20% or more were respectively calculated.

| Structure (SMILES) | Hair graying rate: Changing within ±20% (ratio of subjects) | Hair graying rate: Declining 20% or more (ratio of subjects) | Hair graying rate: Increasing 20% or more (ratio of subjects) |
| --- | --- | --- | --- |
| CCOC(=O)C1CCNCC1 [Compound 3, 4-piperidine carboxylic acid ethyl ester] | 20% | 70% | 10% |
| O=C(O)C1CCNCC1 [Compound 2, 4-piperidine carboxylic acid] | 30% | 60% | 10% |
| NC1CCC(C(=O)O)CC1 (stereo not drawn) [Compound 1, 4-aminocyclohexane carboxylic acid] | 30% | 70% | 0% |
